In ChEMBL document CHEMBL1201862, “PubChem BioAssay data set” (2004):
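Where inhibition never reached the appropriate level, the endpoint shown equals the highest concentration tested. Otherwise, values were interpolated linearly from a five-concentration, 48-hour dose response in 96-well plates. GI50 marks 50% less growth.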 The source made the active and inactive calls. Rule as the data show it: active = GI50 up to about 1.1 µM and inactive = higher.

Key:
Assay in all cases: inhibition of tumour cell growth, NCI panel, 48 h
786-0 = system: 786-0
A498 = system: A498
A549 = system: A549
ACHN = system: ACHN
CAKI-1 = system: CAKI-1
CCRF-CEM = system: CCRF-CEM
COLO 205 = system: COLO 205
DMS-273 = system: DMS-273
EKVX = system: EKVX
HCT-116 = system: HCT-116
HCT-15 = system: HCT-15
HL-60 = system: HL-60
HOP-18 = system: HOP-18
HOP-62 = system: HOP-62
HOP-92 = system: HOP-92
HT-29 = system: HT-29
IGROV-1 = system: IGROV-1
K562 = system: K562
KM-20L2 = system: KM-20L2
KM12 = system: KM12
LOX IMVI = system: LOX IMVI
LXFL 529 = system: LXFL 529
M14 = system: M14
M19-MEL = system: M19-MEL
MOLT-4 = system: MOLT-4
Malme-3M = system: Malme-3M
NCI-H226 = system: NCI-H226
NCI-H23 = system: NCI-H23
NCI-H460 = system: NCI-H460
NCI-H522 = system: NCI-H522
OVCAR-3 = system: OVCAR-3
OVCAR-4 = system: OVCAR-4
OVCAR-5 = system: OVCAR-5
OVCAR-8 = system: OVCAR-8
RPMI-8226 = system: RPMI-8226
RXF 393 = system: RXF 393
RXF 631 = system: RXF 631
SF-268 = system: SF-268
SF-295 = system: SF-295
SF-539 = system: SF-539
SK-MEL-28 = system: SK-MEL-28
SK-MEL-2 = system: SK-MEL-2
SK-MEL-5 = system: SK-MEL-5
SK-OV-3 = system: SK-OV-3
SN12C = system: SN12C
SNB-19 = system: SNB-19
SNB-75 = system: SNB-75
SNB-78 = system: SNB-78
SW-620 = system: SW-620
TK-10 = system: TK-10
U-251 = system: U-251
UACC-257 = system: UACC-257
UACC-62 = system: UACC-62
UO-31 = system: UO-31
XF498 = system: XF498
DLD-1 = system: DLD-1
DMS-114 = system: DMS-114
HCC 2998 = system: HCC 2998
SR = system: SR

In the case of C[C@]12CCC3[C@@H](CC[C@@H]4c5nonc5CC[C@]34C)C1CCC(=O)N2 (stereo not given in full), the GI50 (786-0) is reported as > 100 µM (inactive), the GI50 (A498) is reported as > 100 µM (inactive) and the GI50 (A549) is reported as > 100 µM (inactive). For the same compound, the GI50 (ACHN) was > 100 µM (inactive), the GI50 (CAKI-1) was > 100 µM (inactive) and the GI50 (CCRF-CEM) was > 100 µM (inactive). For the same compound, the GI50 (COLO 205) was > 100 µM (inactive), the GI50 (DMS-273) was > 100 µM (inactive) and the GI50 (EKVX) was 68.9 µM (inactive). For the same compound, the GI50 (HCT-116) was > 100 µM (inactive), the GI50 (HCT-15) was over 100 µM and the GI50 (HL-60) was 93.8 µM (inactive). The GI50 (HOP-18) was > 100 µM (inactive), the GI50 (HOP-62) was > 100 µM (inactive) and the GI50 (HOP-92) was 95.7 µM (inactive). The GI50 (HT-29) was > 100 µM (inactive), the GI50 (IGROV-1) was > 100 µM (inactive) and the GI50 (K562) was > 100 µM (inactive). For the same compound, the GI50 (KM-20L2) was > 100 µM (inactive), the GI50 (KM12) was > 100 µM (inactive) and the GI50 (LOX IMVI) was > 100 µM (inactive). For the same compound, the GI50 (LXFL 529) was > 100 µM (inactive), the GI50 (M14) was > 100 µM (inactive) and the GI50 (M19-MEL) was > 100 µM (inactive). For the same compound, the GI50 (MOLT-4) was > 100 µM (inactive), the GI50 (Malme-3M) was > 100 µM (inactive) and the GI50 (NCI-H226) was > 100 µM (inactive). For the same compound, the GI50 (NCI-H23) was > 100 µM (inactive), the GI50 (NCI-H460) was > 100 µM (inactive) and the GI50 (NCI-H522) was 56.1 µM (inactive). The GI50 (OVCAR-3) was > 100 µM (inactive), the GI50 (OVCAR-4) was > 100 µM (inactive) and the GI50 (OVCAR-5) was > 100 µM (inactive). For the same compound, the GI50 (OVCAR-8) was > 100 µM (inactive), the GI50 (RPMI-8226) was 67.9 µM (inactive) and the GI50 (RXF 393) was > 100 µM (inactive). The GI50 (RXF 631) was > 100 µM (inactive), the GI50 (SF-268) was > 100 µM (inactive) and the GI50 (SF-295) was > 100 µM (inactive). For the same compound, the GI50 (SF-539) was > 100 µM (inactive), the GI50 (SK-MEL-28) was > 100 µM (inactive) and the GI50 (SK-MEL-2) was 0.356 µM (active). The GI50 (SK-MEL-5) was > 100 µM (inactive), the GI50 (SK-OV-3) was > 100 µM (inactive) and the GI50 (SN12C) was > 100 µM (inactive). The GI50 (SNB-19) was > 100 µM (inactive), the GI50 (SNB-75) was 55 µM (inactive) and the GI50 (SNB-78) was > 100 µM (inactive). For the same compound, the GI50 (SW-620) was > 100 µM (inactive), the GI50 (TK-10) was > 100 µM (inactive) and the GI50 (U-251) was > 100 µM (inactive). The GI50 (UACC-257) was > 100 µM (inactive), the GI50 (UACC-62) was > 100 µM (inactive) and the GI50 (UO-31) was > 100 µM (inactive). For the same compound, the GI50 (XF498) was > 100 µM (inactive).

In the case of CN(C)CCNC(=O)c1cccc2nc3c(Cl)cccc3nc12, the GI50 (786-0) is reported as 7.98 µM (inactive), the GI50 (A498) is reported as 4.63 µM (inactive) and the GI50 (A549) is reported as 4.33 µM (inactive). For the same compound, the GI50 (ACHN) was 3.13 µM (inactive), the GI50 (CAKI-1) was > 20.7 µM (inactive) and the GI50 (COLO 205) was 3.75 µM (inactive). For the same compound, the GI50 (DLD-1) was 4.43 µM (inactive), the GI50 (DMS-114) was 3.57 µM (inactive) and the GI50 (DMS-273) was 5.09 µM (inactive). The GI50 (EKVX) was 8.61 µM (inactive), the GI50 (HCC 2998) was 8.85 µM (inactive) and the GI50 (HCT-116) was 3.16 µM (inactive). For the same compound, the GI50 (HCT-15) was 4.08 µM, the GI50 (HL-60) was 6.43 µM (inactive) and the GI50 (HOP-18) was > 30.7 µM (inactive). The GI50 (HOP-62) was 5.66 µM (inactive), the GI50 (HOP-92) was 2.84 µM (inactive) and the GI50 (HT-29) was 3.18 µM (inactive). For the same compound, the GI50 (IGROV-1) was 6.41 µM (inactive), the GI50 (K562) was 2.31 µM (inactive) and the GI50 (KM-20L2) was 5.52 µM (inactive). The GI50 (KM12) was 5.75 µM (inactive), the GI50 (LOX IMVI) was 3.14 µM (inactive) and the GI50 (LXFL 529) was 9.84 µM (inactive). For the same compound, the GI50 (M14) was 6.24 µM (inactive), the GI50 (M19-MEL) was 2.96 µM (inactive) and the GI50 (MOLT-4) was 2.38 µM (inactive). For the same compound, the GI50 (Malme-3M) was 2 µM (inactive), the GI50 (NCI-H226) was 3.55 µM (inactive) and the GI50 (NCI-H23) was 5.61 µM (inactive). For the same compound, the GI50 (NCI-H522) was 14.3 µM (inactive), the GI50 (OVCAR-3) was 6.38 µM (inactive) and the GI50 (OVCAR-4) was 6.31 µM (inactive). The GI50 (OVCAR-5) was 7.93 µM (inactive), the GI50 (OVCAR-8) was 4.46 µM (inactive) and the GI50 (RPMI-8226) was 4.23 µM (inactive). For the same compound, the GI50 (RXF 393) was 3.4 µM (inactive), the GI50 (RXF 631) was 6.92 µM (inactive) and the GI50 (SF-295) was 4.8 µM (inactive). The GI50 (SF-539) was 4.75 µM (inactive), the GI50 (SK-MEL-28) was 4.7 µM (inactive) and the GI50 (SK-MEL-2) was 5.22 µM (inactive). For the same compound, the GI50 (SK-MEL-5) was 5.06 µM (inactive), the GI50 (SK-OV-3) was 17.3 µM (inactive) and the GI50 (SN12C) was 4.52 µM (inactive). For the same compound, the GI50 (SNB-19) was 8.13 µM (inactive), the GI50 (SNB-75) was 7.48 µM (inactive) and the GI50 (SR) was 1.51 µM (inactive). For the same compound, the GI50 (SW-620) was 3.92 µM (inactive), the GI50 (TK-10) was 4.09 µM (inactive) and the GI50 (U-251) was 5.18 µM (inactive). For the same compound, the GI50 (UACC-257) was 4.93 µM (inactive), the GI50 (UACC-62) was 2.02 µM (inactive) and the GI50 (UO-31) was 8.05 µM (inactive). The GI50 (XF498) was 2.92 µM (inactive).

For O=C(CCc1ccccc1)NS(=O)(=O)c1ccccc1, the GI50 (786-0) was > 100 µM (inactive), the GI50 (A498) was > 100 µM (inactive) and the GI50 (A549) was > 100 µM (inactive). For the same compound, the GI50 (ACHN) was > 100 µM (inactive), the GI50 (CAKI-1) was > 100 µM (inactive) and the GI50 (CCRF-CEM) was > 100 µM (inactive). The GI50 (COLO 205) was > 100 µM (inactive), the GI50 (DLD-1) was > 100 µM (inactive) and the GI50 (DMS-114) was > 100 µM (inactive). The GI50 (EKVX) was > 100 µM (inactive), the GI50 (HCC 2998) was > 100 µM (inactive) and the GI50 (HCT-116) was > 100 µM (inactive). The GI50 (HL-60) was > 100 µM (inactive), the GI50 (HOP-18) was > 100 µM (inactive) and the GI50 (HOP-62) was > 100 µM (inactive). For the same compound, the GI50 (HOP-92) was > 100 µM (inactive), the GI50 (HT-29) was > 100 µM (inactive) and the GI50 (IGROV-1) was > 100 µM (inactive). The GI50 (K562) was > 100 µM (inactive), the GI50 (KM-20L2) was > 100 µM (inactive) and the GI50 (KM12) was > 100 µM (inactive). For the same compound, the GI50 (LOX IMVI) was > 100 µM (inactive), the GI50 (LXFL 529) was > 100 µM (inactive) and the GI50 (M14) was > 100 µM (inactive). The GI50 (M19-MEL) was > 100 µM (inactive), the GI50 (MOLT-4) was > 100 µM (inactive) and the GI50 (Malme-3M) was > 100 µM (inactive). The GI50 (NCI-H226) was > 100 µM (inactive), the GI50 (NCI-H23) was > 100 µM (inactive) and the GI50 (NCI-H460) was > 100 µM (inactive). For the same compound, the GI50 (NCI-H522) was > 100 µM (inactive), the GI50 (OVCAR-3) was > 100 µM (inactive) and the GI50 (OVCAR-4) was > 100 µM (inactive). The GI50 (OVCAR-5) was > 100 µM (inactive), the GI50 (OVCAR-8) was > 100 µM (inactive) and the GI50 (RPMI-8226) was > 100 µM (inactive). The GI50 (RXF 393) was > 100 µM (inactive), the GI50 (RXF 631) was > 100 µM (inactive) and the GI50 (SF-268) was > 100 µM (inactive). The GI50 (SF-295) was > 100 µM (inactive), the GI50 (SF-539) was > 100 µM (inactive) and the GI50 (SK-MEL-28) was > 100 µM (inactive). For the same compound, the GI50 (SK-MEL-2) was > 100 µM (inactive), the GI50 (SK-OV-3) was > 100 µM (inactive) and the GI50 (SN12C) was > 100 µM (inactive). The GI50 (SNB-19) was > 100 µM (inactive), the GI50 (SNB-75) was > 100 µM (inactive) and the GI50 (SR) was > 100 µM (inactive). The GI50 (SW-620) was > 100 µM (inactive), the GI50 (TK-10) was > 100 µM (inactive) and the GI50 (U-251) was > 100 µM (inactive). The GI50 (UACC-257) was > 100 µM (inactive), the GI50 (UACC-62) was > 100 µM (inactive) and the GI50 (UO-31) was > 100 µM (inactive). The GI50 (XF498) was > 100 µM (inactive).
